Data from US12162890B2 (Novartis AG, priority 2015, dated 2024).

Target: HEK293 cells with stable expression of the GRIN1 gene and tetracycline-inducible expression of the GRIN2B gene (NMDA receptor, NR2B) (Homo sapiens, UniProt Q13224)
Assay: Fluo-8 Ca2+ flux assay: reversal of Ro 25-6981-mediated suppression of the Ca2+ response to co-agonist (glutamate/glycine); note: test concentration or dose not given here
Format: cell-based
Conditions: reversal of the Ro 25-6981 suppression of the Ca2+ response to co-agonist (glutamate/glycine)

Sequence of HEK293 cells with stable expression of the GRIN1 gene and tetracycline-inducible expression of the GRIN2B gene (NMDA receptor, NR2B) (Q13224 27-1484, other chains not shown): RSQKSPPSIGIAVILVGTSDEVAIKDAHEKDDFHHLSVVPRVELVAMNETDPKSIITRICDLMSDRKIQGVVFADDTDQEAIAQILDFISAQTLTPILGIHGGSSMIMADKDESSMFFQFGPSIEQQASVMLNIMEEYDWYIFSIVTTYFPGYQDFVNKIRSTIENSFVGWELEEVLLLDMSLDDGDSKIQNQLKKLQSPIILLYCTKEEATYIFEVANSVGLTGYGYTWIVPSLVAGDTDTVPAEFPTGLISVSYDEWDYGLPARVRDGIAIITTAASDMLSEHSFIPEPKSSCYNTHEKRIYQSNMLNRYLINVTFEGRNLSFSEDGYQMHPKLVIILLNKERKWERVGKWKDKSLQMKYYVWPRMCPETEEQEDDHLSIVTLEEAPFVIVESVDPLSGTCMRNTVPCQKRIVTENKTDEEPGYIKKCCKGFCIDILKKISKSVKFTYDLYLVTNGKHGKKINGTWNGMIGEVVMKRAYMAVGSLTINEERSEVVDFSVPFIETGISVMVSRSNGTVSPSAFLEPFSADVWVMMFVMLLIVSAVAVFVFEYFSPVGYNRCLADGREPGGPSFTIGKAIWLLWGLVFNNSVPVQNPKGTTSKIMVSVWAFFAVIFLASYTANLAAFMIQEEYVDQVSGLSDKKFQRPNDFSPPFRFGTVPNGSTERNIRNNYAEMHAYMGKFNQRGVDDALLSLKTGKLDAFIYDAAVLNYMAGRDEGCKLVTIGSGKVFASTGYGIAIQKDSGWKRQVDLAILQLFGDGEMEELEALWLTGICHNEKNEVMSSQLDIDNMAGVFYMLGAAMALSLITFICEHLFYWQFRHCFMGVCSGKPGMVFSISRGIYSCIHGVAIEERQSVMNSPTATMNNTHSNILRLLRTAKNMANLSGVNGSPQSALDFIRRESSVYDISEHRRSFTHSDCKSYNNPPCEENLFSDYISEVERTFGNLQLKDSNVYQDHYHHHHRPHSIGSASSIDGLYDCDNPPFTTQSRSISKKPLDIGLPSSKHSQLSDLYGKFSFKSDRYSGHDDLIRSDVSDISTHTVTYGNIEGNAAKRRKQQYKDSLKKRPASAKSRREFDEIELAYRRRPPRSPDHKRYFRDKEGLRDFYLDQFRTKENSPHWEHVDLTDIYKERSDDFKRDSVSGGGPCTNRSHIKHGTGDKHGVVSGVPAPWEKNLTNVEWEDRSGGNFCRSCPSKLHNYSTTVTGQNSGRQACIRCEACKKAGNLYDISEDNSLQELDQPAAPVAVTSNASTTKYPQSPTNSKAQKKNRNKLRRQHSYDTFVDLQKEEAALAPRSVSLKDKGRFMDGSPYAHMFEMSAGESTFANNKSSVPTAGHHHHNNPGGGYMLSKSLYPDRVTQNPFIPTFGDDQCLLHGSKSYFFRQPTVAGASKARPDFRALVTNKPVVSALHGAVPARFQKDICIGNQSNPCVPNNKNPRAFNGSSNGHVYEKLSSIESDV

| SMILES | Response Recovered (%) |
| --- | --- |
| Cc1cn(CC(=O)N2CC(C)(F)C2)c(=O)c2c(-c3cnc(Cl)c(Cl)c3)ccn12 [Example 420, 8-(5,6-dichloropyridin-3-yl)-2-(2-(3-fluoro-3-methylazetidin-1-yl)-2-oxoethyl)-4-methylpyrrolo[1,2-a]pyrazin-1(2H)-one] | 69 |
| O=C(Cn1cnc2onc(-c3ccc(Cl)cc3)c2c1=O)N1CC(F)(F)C1 [Example 385, 3-(4-chlorophenyl)-5-(2-(3,3-difluoroazetidin-1-yl)-2-oxoethyl)isoxazolo[5,4-d]pyrimidin-4(5H)-one] | 4 |
| O=C(Cn1ccc2scc(-c3ccc(F)c(Cl)c3)c2c1=O)N1CC(F)C1 [Example 47, 3-(3-chloro-4-fluorophenyl)-5-(2-(3-fluoroazetidin-1-yl)-2-oxoethyl)thieno[3,2-c]pyridin-4(5H)-one] | 23 |
| O=C(Cn1ccc2ncc(-c3ccc(F)c(C(F)(F)F)c3)n2c1=O)N1CCC(F)C1 (stereo not shown) [Example 448, 3-(4-fluoro-3-(trifluoromethyl)phenyl)-6-(2-(3-fluoropyrrolidin-1-yl)-2-oxoethyl)imidazo[1,2-c]pyrimidin-5(6H)-one] | 14 |
| Cc1cn(CC(=O)N2CCC(F)C2)c(=O)n2c(-c3ccc(F)c(C(F)(F)F)c3)cnc12 (stereo not shown) [Example 454, 3-(4-fluoro-3-(trifluoromethyl)phenyl)-6-(2-(3-fluoropyrrolidin-1-yl)-2-oxoethyl)-8-methylimidazo[1,2-c]pyrimidin-5(6H)-one] | 35 |
| O=C(Cn1ccc2ccc(-c3ccc(Cl)c(C(F)(F)F)c3)cc2c1=O)N1CC(F)(F)C1 [Example 312, 7-(4-chloro-3-(trifluoromethyl)phenyl)-2-(2-(3,3-difluoroazetidin-1-yl)-2-oxoethyl)isoquinolin-1(2H)-one] | 3 |
| CC1(F)CN(C(=O)Cn2ccn3ccc(-c4ccc(Cl)c(Cl)c4)c3c2=O)C1 [Example 396, 8-(3,4-dichlorophenyl)-2-(2-(3-fluoro-3-methylazetidin-1-yl)-2-oxoethyl)pyrrolo[1,2-a]pyrazin-1(2H)-one] | 140 |
| O=C(Cn1ccc2scc(-c3ccc(Cl)c(Cl)c3)c2c1=O)N1CC[C@H](F)C1 [Example 30, (S)-3-(3,4-dichlorophenyl)-5-(2-(3-fluoropyrrolidin-1-yl)-2-oxoethyl)thieno[3,2-c]pyridin-4(5H)-one] | 96 |
| C/C(=N/O)c1cn(CC(=O)N2CCC(F)C2)c(=O)c2c(-c3ccc(F)c(C(F)(F)F)c3)csc12 (stereo not shown) [Example 135, (Z)-3-(4-fluoro-3-(trifluoromethyl)phenyl)-5-(2-(3-fluoropyrrolidin-1-yl)-2-oxoethyl)-7-(1-(hydroxyimino)ethyl)thieno[3,2-c]pyridin-4(5H)-one] | 11 |
| CC1(F)CN(C(=O)Cn2ccn3cnc(-c4ccc(Cl)c(Cl)c4)c3c2=O)C1 [Example 447, 1-(3,4-dichlorophenyl)-7-(2-(3-fluoro-3-methylazetidin-1-yl)-2-oxoethyl)imidazo[1,5-a]pyrazin-8(7H)-one] | 58 |
| O=C(Cn1cnc2[nH]cc(-c3ccc(F)c(C(F)(F)F)c3)c2c1=O)N1CCC(F)C1 (stereo not shown) [Example 174, 5-(4-fluoro-3-(trifluoromethyl)phenyl)-3-(2-(3-fluoropyrrolidin-1-yl)-2-oxoethyl)-3H-pyrrolo[2,3-d]pyrimidin-4(7H)-one] | 91 |
| Cc1cc(-c2csc3ccn(CC(=O)N4CC(F)(CF)C4)c(=O)c23)cnc1Cl [Example 86, 3-(6-chloro-5-methylpyridin-3-yl)-5-(2-(3-fluoro-3-(fluoromethyl)azetidin-1-yl)-2-oxoethyl)thieno[3,2-c]pyridin-4(5H)-one] | 17 |
| C[Si](C)(C)CCOCn1cc(-c2ccc(Cl)c(F)c2)c2c(=O)n(CC(=O)N3CCC(F)C3)ccc21 (stereo not shown) [Example 202, 3-(4-chloro-3-fluorophenyl)-5-(2-(3-fluoropyrrolidin-1-yl)-2-oxoethyl)-1-((2-(trimethylsilyl)ethoxy)methyl)-1H-pyrrolo[3,2-c]pyridin-4(5H)-one] | 32 |
| O=C(Cn1ncc2scc(-c3ccc(Cl)c(Cl)c3)c2c1=O)N1CCCC1 [Example 338, 3-(3,4-dichlorophenyl)-5-(2-oxo-2-(pyrrolidin-1-yl)ethyl)thieno[2,3-d]pyridazin-4(5H)-one] | 15 |
| COCn1cc(-c2ccc(F)c(C(F)(F)F)c2)c2c(=O)n(CC(=O)N3CCC(F)C3)cnc21 (stereo not shown) [Example 189, 5-(4-fluoro-3-(trifluoromethyl)phenyl)-3-(2-(3-fluoropyrrolidin-1-yl)-2-oxoethyl)-7-(methoxymethyl)-3H-pyrrolo[2,3-d]pyrimidin-4(7H)-one] | 39 |
| CCC1(F)CN(C(=O)Cn2cc(C)n3ccc(-c4cnc(Cl)c(Cl)c4)c3c2=O)C1 [Example 422, 8-(5,6-dichloropyridin-3-yl)-2-(2-(3-ethyl-3-fluoroazetidin-1-yl)-2-oxoethyl)-4-methylpyrrolo[1,2-a]pyrazin-1(2H)-one] | 29 |

| SMILES | Response Recovered (%) |
| --- | --- |
| O=C(Cn1ccc2cccc(-c3ccc(Cl)c(F)c3)c2c1=O)N1CCCC1 [Example 307, 8-(4-chloro-3-fluorophenyl)-2-(2-oxo-2-(pyrrolidin-1-yl)ethyl)isoquinolin-1(2H)-one] | 24 |
| O=C(Cn1ccc2scc(-c3cnc(F)c(Cl)c3)c2c1=O)N1CC(F)C(F)C1 (stereo not shown) [Example 38, 3-(5-chloro-6-fluoropyrridin-3-yl)-5-(2-(3,4-difluoropyrrolidin-1-yl)-2-oxoethyl)thieno[3,2-c]pyridin-4(5H)-one] | 18 |
| O=C(Cn1cnc2[nH]cc(-c3ccc(F)c(Cl)c3)c2c1=O)N1CCCC1 [Example 156, 5-(3-chloro-4-fluorophenyl)-3-(2-oxo-2-(pyrrolidin-1-yl)ethyl)-3H-pyrrolo[2,3-d]pyrimidin-4(7H)-one] | 36 |
| O=C(Cn1ccc2[nH]cc(-c3ccc(F)c(C(F)(F)F)c3)c2c1=O)N1CC(F)C(F)C1 (stereo not shown) [Example 220, 5-(2-(3,4-difluoropyrrolidin-1-yl)-2-oxoethyl)-3-(4-fluoro-3-(trifluoromethyl)phenyl)-1H-pyrrolo[3,2-c]pyridin-4(5H)-one] | 120 |
| Cc1ncc(-c2csc3ccn(CC(=O)N4CC(C)(F)C4)c(=O)c23)cc1Cl [Example 90, 3-(5-chloro-6-methylpyridin-3-yl)-5-(2-(3-fluoro-3-methylazetidin-1-yl)-2-oxoethyl)thieno[3,2-c]pyridin-4(5H)-one] | 75 |
| O=C(Cn1cc(-c2ncon2)c2scc(-c3ccc(F)c(C(F)(F)F)c3)c2c1=O)N1CCCC1 [Example 109, 3-(4-fluoro-3-(trifluoromethyl)phenyl)-7-(1,2,4-oxadiazol-3-yl)-5-(2-oxo-2-(pyrrolidin-1-yl)ethyl)thieno[3,2-c]pyridin-4(5H)-one] | 14 |
| O=C(Cn1ccc2scc(-c3ccc(F)c(Cl)c3)c2c1=O)N1CC(F)(c2ccccc2)C1 [Example 57, 3-(3-chloro-4-fluorophenyl)-5-(2-(3-fluoro-3-phenylazetidin-1-yl)-2-oxoethyl)thieno[3,2-c]pyridin-4(5H)-one] | 15 |
| CCC1(F)CN(C(=O)Cn2ccc3scc(-c4cnc(F)c(C)c4)c3c2=O)C1 [Example 88, 5-(2-(3-ethyl-3-fluoroazetidin-1-yl)-2-oxoethyl)-3-(6-fluoro-5-methylpyridin-3-yl)thieno[3,2-c]pyridin-4(5H)-one] | 20 |
| NC(=O)Cn1ccc2[nH]cc(-c3ccc(F)c(Cl)c3)c2c1=O [Example 255, 2-(3-(3-chloro-4-fluorophenyl)-4-oxo-1H-pyrrolo[3,2-c]pyridin-5(4H)-yl)acetamide] | −1 |
| O=C(Cn1ccc2[nH]cc(-c3ccc(Cl)c(Cl)c3)c2c1=O)N1CCCC1 [Example 217, 3-(3,4-dichlorophenyl)-5-(2-oxo-2-(pyrrolidin-1-yl)ethyl)-1H-pyrrolo[3,2-c]pyridin-4(5H)-one] | 70 |
| O=C(Cn1ncc2scc(-c3ccc(Cl)c(C(F)(F)F)c3)c2c1=O)N1CCC(F)C1 (stereo not shown) [Example 344, 3-(4-chloro-3-(trifluoromethyl)phenyl)-5-(2-(3-fluoropyrrolidin-1-yl)-2-oxoethyl)thieno[2,3-d]pyridazin-4(5H)-one] | −1 |
| Cc1cn(CC(=O)N2CCC(F)C2)c(=O)n2c(-c3ccc(F)c(Cl)c3)cnc12 (stereo not shown) [Example 452, 3-(3-chloro-4-fluorophenyl)-6-(2-(3-fluoropyrrolidin-1-yl)-2-oxoethyl)-8 methylimidazo[1,2-c]pyrimidin-5(6H)-one] | 7.5 |
| CC1(N)CN(C(=O)Cn2ccc3scc(-c4ccc(Cl)c(Cl)c4)c3c2=O)C1 [Example 94, 5-(2-(3-amino-3-methylazetidin-1-yl)-2-oxoethyl)-3-(3,4-dichlorophenyl)thieno[3,2-c]pyridin-4(5H)-one] | 3.1 |
| CN(CC(F)(F)F)C(=O)Cn1ccc2scc(-c3ccc(F)c(Cl)c3)c2c1=O [Example 93, 2-(3-(3-chloro-4-fluorophenyl)-4-oxothieno[3,2-c]pyridin-5(4H)-yl)-N-methyl-N-(2,2,2-trifluoroethyl)acetamide] | 4.1 |
| Cn1cc(-c2ccc(Cl)c(C(F)(F)F)c2)c2c(=O)n(CC(=O)N3CCCC3)cnc21 [Example 158, 5-(4-chloro-3-(trifluoromethyl)phenyl)-7-methyl-3-(2-oxo-2-(pyrrolidin-1-yl)ethyl)-3H-pyrrolo[2,3-d]pyrimidin-4(7H)-one] | 72 |
